Reference: ChEMBL document CHEMBL3779862, “Amyloid cascade in Alzheimer's disease: Recent advances in medicinal chemistry” (Eur J Med Chem, 2016)

How the values were obtained:
[1] = target: T1, Amyloid-beta precursor protein (Homo sapiens, UniProt P05067); assay: Inhibition of amyloid beta (1 to 42) (unknown origin) aggregation measured after 24 hrs by Thioflavin T-based fluorometric assay
Cholinesterase = Cholinesterase (Homo sapiens, UniProt P06276); assay: Inhibition of human BuChE assessed as hydrolytic activity using butyrylthiocholine iodide as substrate measured for 15 mins by Ellmans assay
Cholinesterase, sequence (P06276 whole entry): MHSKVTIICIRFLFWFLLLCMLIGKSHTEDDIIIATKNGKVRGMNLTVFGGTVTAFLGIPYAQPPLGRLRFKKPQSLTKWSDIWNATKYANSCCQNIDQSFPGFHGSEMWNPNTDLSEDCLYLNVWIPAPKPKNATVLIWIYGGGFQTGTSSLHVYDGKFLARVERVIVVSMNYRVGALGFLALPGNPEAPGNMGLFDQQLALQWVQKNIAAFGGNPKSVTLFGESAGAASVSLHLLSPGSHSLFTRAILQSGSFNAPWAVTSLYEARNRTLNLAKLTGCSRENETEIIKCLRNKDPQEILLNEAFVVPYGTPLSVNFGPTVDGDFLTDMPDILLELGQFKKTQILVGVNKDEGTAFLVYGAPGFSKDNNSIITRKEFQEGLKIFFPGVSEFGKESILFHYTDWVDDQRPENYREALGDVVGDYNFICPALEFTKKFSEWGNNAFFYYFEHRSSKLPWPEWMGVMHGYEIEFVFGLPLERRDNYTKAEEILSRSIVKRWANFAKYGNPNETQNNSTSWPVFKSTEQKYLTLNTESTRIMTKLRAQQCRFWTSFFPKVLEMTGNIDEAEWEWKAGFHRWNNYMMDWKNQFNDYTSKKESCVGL

Acetylcholinesterase = Acetylcholinesterase (Homo sapiens, UniProt P22303); assay: Inhibition of human AChE assessed as hydrolytic activity using acetylthiocholine iodide as substrate measured for 15 mins by Ellmans assay
Acetylcholinesterase, sequence (P22303 whole entry): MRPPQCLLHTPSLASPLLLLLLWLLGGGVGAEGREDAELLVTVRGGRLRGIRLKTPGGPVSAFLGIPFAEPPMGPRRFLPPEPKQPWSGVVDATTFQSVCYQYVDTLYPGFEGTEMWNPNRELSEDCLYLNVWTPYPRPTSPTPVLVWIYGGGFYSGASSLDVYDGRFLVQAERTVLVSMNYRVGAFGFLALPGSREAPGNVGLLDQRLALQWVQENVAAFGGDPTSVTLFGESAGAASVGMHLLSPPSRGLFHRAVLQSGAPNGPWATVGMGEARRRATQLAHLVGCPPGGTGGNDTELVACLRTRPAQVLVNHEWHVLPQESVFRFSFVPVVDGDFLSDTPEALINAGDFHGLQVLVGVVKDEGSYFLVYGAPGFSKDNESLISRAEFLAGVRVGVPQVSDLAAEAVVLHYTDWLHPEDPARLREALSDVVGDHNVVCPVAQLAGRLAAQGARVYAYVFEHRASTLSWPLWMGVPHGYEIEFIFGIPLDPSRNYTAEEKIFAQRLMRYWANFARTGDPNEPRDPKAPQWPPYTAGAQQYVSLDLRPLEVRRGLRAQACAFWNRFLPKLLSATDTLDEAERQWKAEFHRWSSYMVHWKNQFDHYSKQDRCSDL

[2] = target: T1, Amyloid-beta precursor protein; assay: Inhibition of human amyloid beta (1 to 42) aggregation at 100 uM measured after 72 hrs by Thioflavin T-based fluorometric assay
[3] = target: T1, Amyloid-beta precursor protein; assay: Inhibition of amyloid beta (1 to 42) (unknown origin) aggregation at 50 uM measured after 3 hrs by Thioflavin T-based fluorometric assay

T1 sequence (P05067 whole entry): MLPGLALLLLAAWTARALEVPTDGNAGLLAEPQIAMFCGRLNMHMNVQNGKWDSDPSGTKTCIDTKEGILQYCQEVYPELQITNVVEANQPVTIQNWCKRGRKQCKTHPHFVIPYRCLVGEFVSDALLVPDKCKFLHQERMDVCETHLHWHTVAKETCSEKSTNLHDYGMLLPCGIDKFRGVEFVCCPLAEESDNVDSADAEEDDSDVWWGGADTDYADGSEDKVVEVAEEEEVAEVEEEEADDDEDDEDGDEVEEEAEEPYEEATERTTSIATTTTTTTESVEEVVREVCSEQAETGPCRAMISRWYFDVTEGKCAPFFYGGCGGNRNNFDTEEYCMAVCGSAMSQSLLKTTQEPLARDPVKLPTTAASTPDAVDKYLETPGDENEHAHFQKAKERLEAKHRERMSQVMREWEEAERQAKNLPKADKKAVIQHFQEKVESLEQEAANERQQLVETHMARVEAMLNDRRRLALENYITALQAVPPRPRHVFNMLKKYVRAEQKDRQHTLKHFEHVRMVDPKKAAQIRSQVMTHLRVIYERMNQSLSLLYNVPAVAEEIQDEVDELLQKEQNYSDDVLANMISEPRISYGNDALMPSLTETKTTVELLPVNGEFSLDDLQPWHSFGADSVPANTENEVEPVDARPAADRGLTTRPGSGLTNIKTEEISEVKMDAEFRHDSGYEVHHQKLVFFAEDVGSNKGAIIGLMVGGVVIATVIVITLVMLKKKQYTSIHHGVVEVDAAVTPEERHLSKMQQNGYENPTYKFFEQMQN

SMILES	IC50 [1] [µM]	IC50 (Cholinesterase) [µM]	IC50 (Acetylcholinesterase) [µM]	inhibition [2] [%]	inhibition [3] [%]
CN(C)c1ccc(-c2cc(NCCNc3cc(-c4ccc(N(C)C)cc4)[nH]n3)n[nH]2)cc1	7.5				
COc1nc(Oc2ccc(C(=O)OCC(C)N(C)C)cc2)nc(Oc2ccc(C(=O)OCC(C)N(C)C)cc2)n1 (centres undefined)		> 200	111	58.4	
CC(C)CCNC(=O)c1cc(Cc2ccccc2)cc(Oc2ccccc2)n1					71
Cc1ccc(-c2cc(NCCNc3cc(-c4cccs4)[nH]n3)n[nH]2)cc1	29				
O=C(NC1C2CC3CC(C2)CC1C3)c1nc(Cc2ccccc2)cc(Oc2ccccc2)n1 (centres undefined)					47
CC(COC(=O)c1ccc(Oc2nc(Oc3ccc(C(=O)OCC(C)N(C)C)cc3)nc(Oc3ccc(C(=O)OCC(C)N(C)C)cc3)n2)cc1)N(C)C (centres undefined)		164	80.8	68.5	
C[N+](C)(C)CCOC(=O)c1ccc(Oc2nc(Oc3ccc(C(=O)OCC[N+](C)(C)C)cc3)nc(Oc3ccc(C(=O)OCC[N+](C)(C)C)cc3)n2)cc1		3.9	0.3	50.9	
Fc1ccc(-c2cc(NCCNc3cc(-c4ccc(F)cc4)[nH]n3)n[nH]2)cc1	40.5				
